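1) Cells in 96-well plates. 2) Compound, 48 h, 5 concentrations. 3) Linear interpolation between surrounding doses. 4) Unreached endpoint = highest concentration. The concentration for full growth arrest is given as TGI.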
How the values were obtained:
Assay in all cases: NCI tumour cell line growth inhibition, 48 h
OVCAR-5 ovarian = system: OVCAR-5 ovarian
MALME-3M melanoma = system: MALME-3M melanoma
SW-620 colon = system: SW-620 colon
SK-MEL-5 melanoma = system: SK-MEL-5 melanoma
ACHN renal = system: ACHN renal
COLO 205 colon = system: COLO 205 colon
HCC-2998 colon = system: HCC-2998 colon
M14 melanoma = system: M14 melanoma
UACC-62 melanoma = system: UACC-62 melanoma
RPMI-8226 leukemia = system: RPMI-8226 leukemia
OVCAR-8 ovarian = system: OVCAR-8 ovarian
HCT-116 colon = system: HCT-116 colon
CCRF-CEM leukemia = system: CCRF-CEM leukemia
NCI-H522 lung = system: NCI-H522 lung
MCF7 breast = system: MCF7 breast
MDA-MB-231 breast = system: MDA-MB-231 breast
UO-31 renal = system: UO-31 renal
RXF 393 renal = system: RXF 393 renal
OVCAR-4 ovarian = system: OVCAR-4 ovarian

SMILES | TGI (OVCAR-5 ovarian) | TGI (MALME-3M melanoma) | TGI (SW-620 colon) | TGI (SK-MEL-5 melanoma) | TGI (ACHN renal) | TGI (COLO 205 colon) | TGI (HCC-2998 colon) | TGI (M14 melanoma) | TGI (UACC-62 melanoma) | TGI (RPMI-8226 leukemia) | TGI (OVCAR-8 ovarian) | TGI (HCT-116 colon) | TGI (CCRF-CEM leukemia) | TGI (NCI-H522 lung) | TGI (MCF7 breast) | TGI (MDA-MB-231 breast) | TGI (UO-31 renal) | TGI (RXF 393 renal) | TGI (OVCAR-4 ovarian)
CCC1C(=O)C(O)[C@H]2[C@@H]3C(O)CC4=CC(=O)CC[C@]4(C)[C@H]3CC[C@]12C (stereo partly drawn) | > 50 µM | > 50 µM | > 50 µM | > 50 µM | > 50 µM | > 50 µM | > 50 µM | > 50 µM | > 50 µM | > 50 µM | > 50 µM | > 50 µM | > 50 µM | > 50 µM | > 50 µM | > 50 µM | > 50 µM |  | 
CN1Cc2cc3c(cc2-c2ccccc21)OCO3 | > 100 µM |  | > 100 µM | > 100 µM | > 100 µM | > 100 µM | > 100 µM | > 100 µM | > 100 µM | > 100 µM | > 100 µM | > 100 µM | > 100 µM | > 100 µM |  |  | > 100 µM | > 100 µM | > 100 µM
CCCCCCCC(=O)OCC1OC(OC)C(NC(=O)N(CCCl)N=O)C(O)C1O (stereo not drawn) | 97.5 µM | 28.5 µM | 18.9 µM | 35.8 µM | > 100 µM | 30.8 µM | 30.3 µM | 21.6 µM | 14 µM | 53.1 µM | 57.2 µM | 15 µM | 40.5 µM | 16 µM |  |  | 45.9 µM | 34.3 µM | > 100 µM
O=C(COC(=O)c1cccc2c(=O)c3ccccc3[nH]c12)Nc1ccccc1 |  | > 100 µM | > 100 µM | 42.7 µM | > 100 µM | 51.6 µM | > 100 µM | > 100 µM | 68 µM | 83.5 µM | > 100 µM | 88.7 µM |  | 73.4 µM |  |  | 65.4 µM | 97.9 µM | > 100 µM
CN(Cc1ccccc1)C(=NC#N)N(C)Cc1ccccc1 |  |  | > 100 µM | > 100 µM | > 100 µM | > 100 µM | > 100 µM | > 100 µM | > 100 µM |  | > 100 µM | > 100 µM |  | > 100 µM |  |  | > 100 µM |  | > 100 µM
O=C(c1cc2c(c3ccccc13)NCCN=C2C(F)(F)F)C(F)(F)F | > 100 µM |  | > 100 µM | 31 µM | 68.3 µM |  | 33 µM | 79.6 µM |  | 27.4 µM | > 100 µM | > 100 µM | > 100 µM | 72.7 µM | > 100 µM | 51.4 µM | > 100 µM | > 100 µM | > 100 µM
Cc1nn(C)cc1P(=S)(c1ccccc1)c1ccccc1 | > 100 µM | > 100 µM | > 100 µM | > 100 µM | > 100 µM | > 100 µM | > 100 µM | > 100 µM | > 100 µM | > 100 µM | > 100 µM | > 100 µM | > 100 µM |  |  |  | > 100 µM | > 100 µM | > 100 µM
CC(C)N1CN(C(C(=O)N[C@@H]2C(=O)N3C2SC(C)(C)C3C(=O)O)c2ccc(O)cc2)CSC1=S (stereo partly drawn) | > 100 µM | > 100 µM | 36.9 µM | > 100 µM | > 100 µM | > 100 µM |  | > 100 µM | > 100 µM | > 100 µM | > 100 µM | > 100 µM | > 100 µM | > 100 µM |  |  | > 100 µM |  | > 100 µM
N#CCC(=O)N/N=C(\C(=O)Nc1ccc(Cl)c(Cl)c1)C1CN(c2ccccc2)N=C1N (stereo not drawn) | > 100 µM | > 100 µM |  | > 100 µM | > 100 µM | > 100 µM | > 100 µM | > 100 µM | > 100 µM | > 100 µM | > 100 µM | > 100 µM | > 100 µM | > 100 µM |  |  | > 100 µM | > 100 µM | > 100 µM
Clc1cc2n[se]nc2cc1Cl | > 100 µM | > 100 µM | > 100 µM | > 100 µM | > 100 µM |  | > 100 µM | > 100 µM | > 100 µM | > 100 µM | > 100 µM | > 100 µM | > 100 µM |  |  |  | > 100 µM | > 100 µM | > 100 µM
O=C1C2CN(Cc3ccccc3)CC1CN(CC1CC1)C2 | > 100 µM | > 100 µM | > 100 µM | > 100 µM | > 100 µM | > 100 µM |  | > 100 µM | > 100 µM | > 100 µM | > 100 µM |  | > 100 µM | > 100 µM |  |  | > 100 µM | > 100 µM | > 100 µM
COC(=O)C1C2CC3C1C3C2C(=O)OC (stereo not drawn) | > 100 µM | > 100 µM | > 100 µM | > 100 µM | > 100 µM | > 100 µM | > 100 µM | > 100 µM | > 100 µM |  | > 100 µM | > 100 µM | > 100 µM | > 100 µM | > 100 µM | > 100 µM | > 100 µM | > 100 µM | > 100 µM
CCOc1ccc(NC(=O)C2=C(C)NC(C)=C(C(=O)Nc3ccc(OCC)cc3)C2c2ccccc2)cc1 | > 100 µM | > 100 µM | > 100 µM | > 100 µM | > 100 µM | > 100 µM | > 100 µM | > 100 µM |  | > 100 µM | > 100 µM |  | > 100 µM | > 100 µM |  |  | > 100 µM | > 100 µM | > 100 µM
COc1cc(/C=C2\C(=O)N(C(=O)c3ccc(NC(C)=O)cc3)N=C2C)ccc1O | > 100 µM | > 100 µM | > 100 µM | > 100 µM | > 100 µM | > 100 µM | > 100 µM | > 100 µM |  | > 100 µM | > 100 µM | > 100 µM | > 100 µM | > 100 µM |  |  | > 100 µM |  | > 100 µM

From PubChem BioAssay (NCI)
